pIC50: −log10 of the molar value.
How the values were obtained:
[1] = test system: mouse mammary carcinoma (MMC) cells; assay: Combination of HSP90 peptides and STING agonist in MMC tumor-bearing mice; type: in vivo, neu-transgenic mice
Description: (§1) To evaluate effects of the combination therapeutic with HSP90 peptides and STING agonist (tlrl-dmx, InvivoGen, CA, USA), MMC cells (5×10^5) were implanted with s.c in neu-transgenic mice. […] Three immunizations were given 10 days apart. 15 days after the third vaccination, spleen, tumor and serum was harvested in mice. To evaluate survival analysis of the combination effects with HSP90 peptides and STING agonist, mice were monitored two time per week until 90 days following tumor implantation and when tumor reached a size greater than 2,000 mm^3, mice were considered dead.
The levels of HSP90 and HER2 ECD were evaluated by ELISA in the serum of HER2 positive breast cancer patients and mice. Briefly, HSP90 (ADI-SPP-776, Enzo Life Science, NY, USA) and HER2 ECD (YCP5341, Speed Biosystems) recombinant proteins were coated a 96-well microplate with 50 μL per well of the diluted concentration of 20 μg/mL in carbonate buffer. Standard was coated with IgG dilution of human and mouse to serial concentration (0.64˜0.005 μg/mL). […] Samples (200 μL) were added to the wells and incubated overnight at 4° C. […] The optical density of each well at 450 nm was determined using an IMARKTM™ microplate reader (Bio-Rad Laboratories, Hercules, CA, USA). […]

[2] = test system: mouse mammary carcinoma (MMC) cells; assay: Survival analysis of HSP90 peptides and STING agonist in MMC tumor-bearing mice; type: in vivo, neu-transgenic mice; conditions: monitored until 90 days after tumor implantation; tumor >2,000 mm^3 considered dead
Description: as §1

MMC cells [3] = assay: Cell viability MTT assay, MMC cells; type: cell-based, mouse
Description: (§2) Neu-transgenic mice [strain: FVB/N-Tg(MMTVneu)202Mul] were obtained from the Jackson Laboratory (Bar Harbor, ME). These mice harbor non-mutated, non-activated rat neu under the control of the mouse mammary tumor virus (MMTV) promoter/enhancer. The neu transgene is expressed at low levels in normal mammary epithelium, salivary gland, and lung. Until the age of eight month, 35% of female neu-transgenic mice spontaneously develop mammary carcinomas that display high neu-expression levels. Mouse mammary carcinoma (MMC) cell line was established from a spontaneous tumor in neu-transgenic mouse. MMC cells were maintained in RPMI-1640 medium (ThermoFisher scientific, Utah, USA) supplemented with 10% fetal bovine serum, 100 units/ml penicillin, […] streptomycin and 2 mM L-glutamine, and were incubated in a humidified 37° C. incubator with 5% CO2. Lapatinib was purchased from LC laboratories (L-4899, MA, USA). […]
(§3) Cells were seeded at a density of 1×10^5 cells in 6-well plates. […] Cell viability was quantitatively analysed using the 3-[4,5-dimethylthiazol-2-yl]-2,5-diphenyltetrazolium (MTT) assay. […] The absorbance of the converted MTT dye was measured at 540 nm using an IMARK™ microplate reader (Bio-Rad Laboratories). Cell viability was expressed as the relative percentage compared to untreated cells; experimental error was also calculated. […] The percent of cell survival was calculated using […] […]

LR-MMC cells [4] = assay: Cell viability MTT assay, lapatinib-resistant MMC cells; type: cell-based, mouse
Description: as §2, §3

MMC cells [5] = assay: Lapatinib treatment of MMC tumor-bearing mice; type: in vivo, neu-transgenic mice; conditions: day 34, lapatinib 75 mg/kg oral gavage 5 times weekly
Description: (§4) To establishment lapatinib-resistant mouse model, MMC and lapatinib-resistant MMC cells (1×106) were injected flank with s.c in neu-transgenic mice.

LR-MMC cells [6] = assay: Lapatinib treatment of LR-MMC tumor-bearing mice; type: in vivo, neu-transgenic mice; conditions: lapatinib 75 mg/kg oral gavage 5 times weekly
Description: as §4

LR-MMC cells [7] = conditions: per 10 high-power field, IHC
human PBMCs = assay: IFN-γ and IL-10 ELISPOT screen of HSP90 peptides in human PBMCs; type: cell-based; conditions: human PBMCs from 10 volunteer donors
Description: Serum samples were obtained after written consent, from 25 HER2 positive breast cancer patient, and 25 volunteer donors at the Korea University Anam Hospital (Approval number: 2016AN0090). All sera were aliquoted and stored at −80° C. For human T cell response studies, peripheral blood mononuclear cells (PBMC) were obtained after informed consent, from 10 breast cancer patients, and 10 volunteer donors. Cells were ficolled and cryopreserved as previously described (Guy C T, et al. (1992) Expression of the neu protooncogene in the mammary epithelium of transgenic mice induces metastatic disease. Proceedings of the National Academy of Sciences of the United States of America 89(22):10578-10582). PBMC samples were obtained at the General Clinical Research Center Facility at the University of Washington (Approval number: NIH MO1-RR-00037)
(§5) Color development was stopped by washing under tap water.
This study profiled the peptide sequences with the highest recognition of HSP90 peptide and MHC class II peptide binding by a scoring system combining multiple MHC class II peptide binding algorithms. FIG. 2 depicts the entire HSP90 peptide sequence and identified immunogenic “hotspots”. Among them, 11 peptides with the highest scores in the binding affinity scoring system were selected. The selected 11 15-mer HSP90 peptides (Table 2) were screened for T helper (Th)1 or Th2 immunity in human PBMCs from 10 volunteer donors by IFN-γ ELISPOT assay using as a representative Th1 cytokine, IFN-γ, and a Th2 cytokine, Interleukine-10 (IL-10).

Splenocytes = assay: Immunogenicity of HSP90 peptides in immunized FVB mice, IFN-γ ELISPOT of splenocytes; type: in vivo; conditions: mice immunized s.c. 100 μg single peptide in CFA/IFA, 3 times; compared with control
Description: To test immunogenicity of the selected peptides in murine model, six to eight-week-old female FVB mice were obtained from Koatech (Gyeonggi, Korea). The mice were immunized subcutaneous (s.c) injection with 100 μg of respective HSP90 peptides of SEQ ID NOs: 1, 2, and 5-14 or Phosphate Buffered Saline (PBS) as a mixture in complete Freund's adjuvant (CFA; F5881, Sigma, MO, USA)/incomplete Freund's adjuvant (IFA; F5506, Sigma). Three immunizations were given 10 days apart. Ten days after the third vaccination, spleen and serum was harvested from each mouse.
as §5

Cc1ccc2c(=O)c3cccc(CC(=O)O)c3oc2c1C [STING agonist]
mean tumor volume (mean±SD) ([1]; day 35, treatment from tumor >100 mm^3, 3 times): 647±66 mm^3
expression levels of mouse HER2 ECD (ELISA) ([1]; serum): 89 µg/mL
median survival [2]: 79 days

CS(=O)(=O)CCNCc1ccc(-c2ccc3ncnc(Nc4ccc(OCc5cccc(F)c5)c(Cl)c4)c3c2)o1 [lapatinib]
sensitivity after lapatinib treatment (MMC cells [3]; MMC cells): sensitive in a dose-dependent manner
pIC50 (MMC cells [3]; Mus musculus, parent MMC cells): 7.12
apoptosis (LR-MMC cells [4]; LR-MMC cells compared with MMC cells): did not induce significant apoptosis
pIC50 (LR-MMC cells [4]; Mus musculus, LR-MMC cells): 6.41
mean tumor volume (mean±SD) (MMC cells [5]): 1711±397 mm^3
mean tumor volume (mean±SD) (LR-MMC cells [6]): 1212±523 mm^3
infiltrated CD8+ T cells in tumor (Mean median) (LR-MMC cells [7]): 6.6 counts

IVKKHSQFIGYPITL (HSP90 p328-342) [HSP90 15-mer peptide]
Th1 and Th2 immune responses (IFN-γ and IL-10 ELISPOT) (human PBMCs): strong Th1 and Th2 immune responses

LEFRALLFVPRRAPF (HSP90 p457-471) [HSP90 15-mer peptide]
Th1 and Th2 immune responses (IFN-γ and IL-10 ELISPOT) (human PBMCs): weak Th1 and Th2 immune responses
antigen-specific T cell response (IFN-γ ELISPOT) (Splenocytes): significantly higher

LYKDLQPFILLRLLM (HSP90 p109-123) [HSP90 15-mer peptide]
Th1 and Th2 immune responses (IFN-γ and IL-10 ELISPOT) (human PBMCs): strong Th1 and Th2 immune responses

LYVRRVFIMDNCEEL (HSP90 p485-499) [HSP90 15-mer peptide]
Th1 and Th2 immune responses (IFN-γ and IL-10 ELISPOT) (human PBMCs): predominantly Th1 immune responses
antigen-specific T cell response (IFN-γ ELISPOT) (Splenocytes): significantly higher

QFGVGFYSAYLVAEK (HSP90 p255-269) [HSP90 15-mer peptide]
Th1 and Th2 immune responses (IFN-γ and IL-10 ELISPOT) (human PBMCs): weak Th1 and Th2 immune responses

QSKILKVIRKNLVKK (HSP90 p527-541) [HSP90 15-mer peptide]
Th1 and Th2 immune responses (IFN-γ and IL-10 ELISPOT) (human PBMCs): predominantly Th1 immune responses
antigen-specific T cell response (IFN-γ ELISPOT) (Splenocytes): significantly higher

SELLRYYTSASGDEM (HSP90 p582-596) [HSP90 15-mer peptide]
Th1 and Th2 immune responses (IFN-γ and IL-10 ELISPOT) (human PBMCs): weak Th1 and Th2 immune responses

SVKDLVILLYETALL (HSP90 p780-794) [HSP90 15-mer peptide]
Th1 and Th2 immune responses (IFN-γ and IL-10 ELISPOT) (human PBMCs): weak Th1 and Th2 immune responses

TDTGEPMGRGTKVIL (HSP90 p296-310) [HSP90 15-mer peptide]
Th1 and Th2 immune responses (IFN-γ and IL-10 ELISPOT) (human PBMCs): weak Th1 and Th2 immune responses

YSNKEIFLRELISNS (HSP90 p160-174) [HSP90 15-mer peptide]
Th1 and Th2 immune responses (IFN-γ and IL-10 ELISPOT) (human PBMCs): weak Th1 and Th2 immune responses
antigen-specific T cell response (IFN-γ ELISPOT) (Splenocytes): significantly higher

Source: patent US12427189B2, “Vaccine comprising epitope of heat shock protein, and use thereof” (ASTON SCI. CO., LTD., priority 2018, dated 2025)
